Results as given in patent US11679107B2 (Eisai R&D Management Co., Ltd., priority 2018, dated 2023).
Where two headings read alike, the source gives them in different places.

Legend:
[1] = tested on: NCI-H1568 cells (high MCL1); experiment: Cell proliferation and viability, CellTiter-Glo, 72 hours; assay type: cell-based; conditions: for GI50: geometric mean
Procedure: Cell lines were maintained in RPMI-1640 (ATCC 30-2001) supplemented with 10% fetal bovine serum (FBS). The Panc lines were supplemented in addition with insulin and FBS up to 15% total.
Compounds for assay were prepared as stocks in 90% dimethyl sulfoxide (DMSO), assessed for purity by LC/MS, and serially diluted in DMSO using a low-volume liquid handler (VIAFLO ASSIST and VIAFLO II electronic 16-channel pipette, 0.5-12.5 μL) in an 11-point half-log serial dilution to create a master dose response (MDR) source used for all tests.
Transfer of compounds from the MDR source plate to cell assay-ready plates were accomplished directly by low-energy acoustic transfer (ATS100, EDC Biosystems). After transfer of compounds to the assay plate, the dose-response range experienced by cells was typically 10 μM-100 pM (5 logs), and final DMSO concentration in the assay was 0.1%, uniformly. Each assay plate was self-anchored containing vehicle/DMSO negative controls, medium-only/positive controls, and cidal control dose-responses of bortezomib and staurosporine. Assay-ready plates were heat-sealed and stored at −20° C. until used, no longer than one month.
A DMSO-matched time zero (T0) plate was read and then all other plates were incubated at 37° C. with 5% CO2 and 95% relative humidity until the end of assay. Cell proliferation and viability assays were performed 72 hours post-treatment depending on cell growth where at least one doubling would have occurred.
Assessment of viability and proliferation was by measurement of cell ATP content using CellTiter-Glo® Luminescent Cell Viability Assay reagent (Promega) according to the manufacturer's instructions (CellTiter-Glo® Luminescent Cell Viability Assay Technical Bulletin Instructions for Use of Product(s) G7570, G7571, G7572, G7573 Literature #TB288, Revised March 2015), using a microtiter plate reader (Envision, PE).
Cell proliferation was evaluated using the time zero (T0) signal as the positive control and the within-plate vehicle wells (DMSO) as the negative control. Data was converted to percent inhibition and falls into the range from −100% to 100% of growth where −100% equals a cidal response and 100% equals uninhibited or maximal growth. Cell growth at or near 0% is considered a static response.

[2] = tested on: Ad2 variant pre-mRNAs spliced in HeLa S3 nuclear extracts; experiment: In vitro splicing assay (IVS), RT-qPCR of spliced product; assay type: biochemical; conditions: for IC50: geometric mean; for Ratio Ad2.1/2.2: ratio of IVS IC50 Ad2.1 to Ad2.2
Procedure: (§1) Batch immobilization of anti-SF3B1 antibody (MBL) to anti-mouse PVT SPA scintillation beads (PerkinElmer) was prepared as follows: for every 2.5 mg of nuclear extracts, 5 μg anti-SF3B1 antibody and 1.5 mg of beads were mixed in 150 μl PBS. The antibody-bead mixture was incubated for 30 min at RT and centrifuged at 18,000 g for 5 min. 150 μl PBS was used to resuspend every 1.5 mg antibody-bead mixture. The beads were suspended and added to the prepared nuclear extracts. The slurry was incubated for 2 h at 4° C. with gentle mixing. The beads were then collected by centrifuging at 18,000 g for 5 min, and washed twice with PBS+0.1% Triton X-100. After a final centrifugation step, every 1.5 mg of beads was suspended with 150 μl of PBS. The SF3b complexes were tested for [^3H]-labelled pladienolide probe binding ([^3H]—PB), synthesized as previously described (Kotake et al., 2007). 100 μl binding reactions were prepared with 50 μl bead slurry and by adding varying concentrations of PB or PB—OH, and after 30 min pre-incubation, 2.5 nM [^3H]—PB was added. The mixture was incubated for 30 min, and luminescence signals were read using a MicroBeta2 Plate Counter (PerkinElmer). Prism 6 (Graphpad) was used for non-linear regression curve fitting of the data. • a. • b. HeLa nuclear extract preparation (for in vitro splicing modulation assay below) • c. HeLa S3 cell pellets were resuspended in hypotonic buffer (10 mM HEPES pH 7.9, 1.5 mM MgCl2, 10 mM KCl, 0.2 mM PMSF, and 0.5 mM DTT) and the suspension was brought up to a total of 5 packed cell volume (PCV). After centrifugation, the supernatant was discarded, and the cells were brought up to 3 PCV with hypotonic buffer and incubated on ice for 10 minutes. Cells were lysed using a dounce homogenizer and then centrifuged. The supernatant was discarded, and the pellet was resuspended with ½ packed nuclear volume (PNV) of low salt buffer (20 mM HEPES pH 7.9, 1.5 mM MgCl2, 20 mM KCl, 0.2 mM EDTA, 25% glycerol, 0.2 mM PMSF, 0.5 mM DTT), followed by ½ PNV of high salt buffer (same as low salt buffer except 1.4 M KCl was used). The nuclei were gently mixed for 30 minutes before centrifuging. The supernatant (nuclear extract) was then dialyzed into storage buffer (20 mM HEPES pH 7.9, 100 mM KCl, 0.2 mM EDTA, 20% glycerol, 0.2 mM PMSF, 0.5 mM DTT). Protein concentration was determined using NanoDrop 8000 UV-Vis spectrophotometer (ThermoFisher Scientific). • d. In vitro splicing assay (IVS)
All Ad2-derived (Pellizzoni et al., 1998) sequences were cloned into pcDNA3.1(+) vector (Promega) using 5′ EcoRI and 3′ XbaI restriction sites. The plasmids were linearized using XbaI and used as DNA templates in the in vitro transcription reactions. The FtzΔi intron-less plasmid (Luo and Reed, 1999) was linearized using EcoRI. All RNAs were in vitro transcribed and then purified using MEGAScript T7 (Invitrogen) and MegaClear (Invitrogen) kits, respectively. For splicing reactions using Ad2 variant pre-mRNAs, […] reactions were prepared using 8 μg nuclear extracts prepared from HeLa S3, 2 ng pre-mRNA, 0.2 ng FTZΔi, and varying concentrations of exemplary payloads or DMSO. After a 15 minute pre-incubation at 30° C., 1 μL splicing activation buffer (0.5 mM ATP, 20 mM creatine phosphate, 1.6 mM MgCl2) was added, and the reactions were incubated for 90 minutes at 30° C. The reactions were then quenched with 13 μL it DMSO, and 25 nL was used for RT-qPCR. RT-qPCR reactions were prepared using TaqMan RNA-to-CT 1-step kit (Life Technologies), RNA from splicing reactions, Ad2 (forward: […]; reverse: […]; probe: […]) and Ftz (forward: […]; reverse: […]; probe: […]) mRNA primer-probe sets. Prism 6 (Graphpad) was used for non-linear regression curve fitting of the formed spliced product and normalized to the control (DMSO) sample.

SF3b complexes = target: T1, SF3b complexes (Homo sapiens, UniProt O75533+Q7RTV0); experiment: Scintillation proximity assay (SPA) with [3H]-labelled pladienolide probe; assay type: binding; conditions: SF3B1 (WT); geometric mean; read-out: SPA-ATS GMean IC50 (nM) SF3B1 (WT)
T1 construct: endogenous in cells; host or cells: Nuclear extracts; A HeLa S3 extract preparation is described for the in vitro splicing assay
Procedure: Scintillation Proximity Assay (SPA) with [^3-H]-Labelled Pladienolide Probe
as §1

[3] = 72 h, NCIH1568.1, -100% = cidal, 0% = static, 100% = uninhibited growth
[4] = NCI-H1568, read-out: CTGlo-ATS GMean GI50 (nM) 72 h NCIH1568.1, 72 h, NCIH1568.1
[5] = Ad2.1 pre-mRNA substrate, read-out: qPCR-IVS-ATS GMean IC50 (nM) Ad2.1
[6] = Ad2.2 pre-mRNA substrate, read-out: qPCR-IVS-ATS GMean IC50 (nM) Ad2.2
[7] = NCI-H1568, 72 h, read-out: CTGlo-ATS GMean GI50 (nM) 72 h NCIH1568.1, NCIH1568.1 cells, 72 h
[8] = NCIH1568.1 cells, 72 h, −100% cidal, 0% static, 100% maximal growth
[9] = NCI-H1568, read-out: CTGlo-ATS GMean GI50 (nM) 72 h NCIH1568.1, NCIH1568.1 cells, 72 h

Row | SMILES | CTGlo-ATS Mean MinResponse % 72 h NCIH1568.1 [1, 3] [%] | GI50 [1, 4] [nM] | IC50 [2, 5] [nM] | IC50 [2, 6] [nM] | Ratio Ad2.1/2.2 [2] | IC50 (SF3b complexes) [nM] | GI50 [1, 7] [nM] | CTGlo-ATS Mean MinResponse % 72 h NCIH1568.1 [1, 8] [%] | GI50 [1, 9] [nM] | GI50 ([1]; NCI-H1568, 72 h, read-out: CTGlo-ATS GMean GI50 (nM) 72 h NCIH1568.1, 72 h, NCIH1568.1) [nM]
1 | C/C(=C\c1cc(F)cc(N2CCN(C(=O)Cn3cccn3)CC2)c1)[C@H]1OC(=O)C[C@H](O)CC[C@H](C)[C@@H](OC(=O)N2CCNC(=O)C2)/C=C/[C@@H]1C [Compound 230, [(2S,3S,4E,6R,7S,10R)-2-[(E)-1-[3-fluoro-5-[4-(2-pyrazol-1-ylacetyl)piperazin-1-yl]phenyl]prop-1-en-2-yl]-10-hydroxy-3,7-dimethyl-12-oxo-1-oxacyclododec-4-en-6-yl] 3-oxopiperazine-1-carboxylate] | −69.108 | 15.9 | 11.7 | 10.9 | 1.078 | 12.9 |  |  |  | 
2 | C/C(=C\c1cc(F)cc(N2CCCN(CC3CC3)C2=O)c1)[C@H]1OC(=O)C[C@H](O)CC[C@H](C)[C@@H](OC(=O)N2CCN(C)CC2)/C=C/[C@@H]1C [Compound 80] |  |  | 6.64 | 8.57 |  | 1.59 | 2.68 | −69.196 |  | 
3 | C/C(=C\c1cc(F)cc(N(C)C2CCN(S(=O)(=O)C3CCCC3)CC2)c1)[C@H]1OC(=O)C[C@H](O)CC[C@H](C)[C@@H](OC(=O)N2CCN(C)CC2)/C=C/[C@@H]1C [Compound 183] |  |  | 713 | 20.3 |  | 66.3 | 53.6 | −66.270 |  | 
4 | C/C(=C\c1cc(F)cc(N2CCN(C(=O)Cn3cccn3)CC2)c1)[C@H]1OC(=O)C[C@H](O)CC[C@H](C)[C@@H](OC(=O)N2CCN(C3CCCCCC3)CC2)/C=C/[C@@H]1C [Compound 236, [(2S,3S,4E,6R,7S,10R)-2-[(E)-1-[3-fluoro-5-[4-(2-pyrazol-1-ylacetyl)piperazin-1-yl]phenyl]prop-1-en-2-yl]-10-hydroxy-3,7-dimethyl-12-oxo-1-oxacyclododec-4-en-6-yl] 4-cycloheptylpiperazine-1-carboxylate] | −90.096 | 9.92 | 49.9 | 56.2 | 0.889 | 84 |  |  |  | 
5 | C/C(=C\c1cc(F)c2nnn([C@@H]3CCCOC3)c2c1)[C@H]1OC(=O)C[C@H](O)CC[C@H](C)[C@@H](OC(=O)N2CCN(C)CC2)/C=C/[C@@H]1C [Compound 161] |  |  | 8.5 | 6.31 |  | 2.51 |  | −85.783 | 0.772 | 
6 | CCCNC(=O)N1CCC(N(C)c2cc(F)cc(/C=C(\C)[C@H]3OC(=O)C[C@H](O)CC[C@H](C)[C@@H](OC(=O)N4CCN(C)CC4)/C=C/[C@@H]3C)c2)CC1 [Compound 192] |  |  | 14.1 | 10.3 |  | 3.85 | 7.49 | −75.900 |  | 
7 | C/C(=C\c1cc(F)cc(N2CCN(C(=O)CCO)CC2)c1)[C@H]1OC(=O)C[C@H](O)CC[C@H](C)[C@@H](OC(=O)N2CCN(C)CC2)/C=C/[C@@H]1C [Compound 155] |  |  | 8.45 | 5.88 |  | 2.21 |  | −83.475 | 1.91 | 
8 | C/C(=C\c1cc(F)cc(NC2CCN(S(C)(=O)=O)CC2)c1)[C@H]1OC(=O)C[C@H](O)CC[C@H](C)[C@@H](OC(=O)N2CCN(C)CC2)/C=C/[C@@H]1C [Compound 173] |  |  | 88.1 | 28.4 |  | 21 | 15.2 | −79.437 |  | 
9 | C/C(=C\c1cc(F)cc(N2CCN(C(=O)C3(C)COC3)CC2)c1)[C@H]1OC(=O)C[C@H](O)CC[C@H](C)[C@@H](OC(=O)N2CCN(C)CC2)/C=C/[C@@H]1C [Compound 154] |  |  | 20 | 8.72 |  | 3.75 |  | −85.459 | 1.85 | 
10 | C/C(=C\c1cc(F)cc(N(C)C2CCN(C(=O)NC(C)C)CC2)c1)[C@H]1OC(=O)C[C@H](O)CC[C@H](C)[C@@H](OC(=O)N2CCN(C)CC2)/C=C/[C@@H]1C [Compound 191] |  |  | 11.6 | 7.47 |  | 3.47 |  | −83.895 | 6.33 | 
11 | C/C(=C\c1cc(F)cc(N2CCN(C(=O)Cn3cccn3)CC2)c1)[C@H]1OC(=O)C[C@H](O)CC[C@H](C)[C@@H](OC(=O)NCc2ccncc2)/C=C/[C@@H]1C [Compound 221, [(2S,3S,4E,6R,7S,10R)-2-[(E)-1-[3-fluoro-5-[4-(2-pyrazol-1-ylacetyl)piperazin-1-yl]phenyl]prop-1-en-2-yl]-10-hydroxy-3,7-dimethyl-12-oxo-1-oxacyclododec-4-en-6-yl] N-(pyridin-4-ylmethyl)carbamate] | −66.213 |  | 9.6 | 4.86 | 1.973 | 9.33 |  |  |  | 11.4
